In patent publication US20230345940A1, “INSECTICIDE” (Western Sydney University, priority 2020, published 2023):
Where “and” joins values, the source holds several entries; their conditions need not be identical. Equal values may be shown once.

Tests used:
[1] = test system: adult foraging workers of Apis mellifera; assay: Acute toxicity to honey bees, Potter Spray Tower; type: in vivo; details: for Knockdown (K), no. of bees / Mortality (D), no. of bees: n = 10, extract 1.0% w/v, bifenthrin 0.05% w/v
Method: The laboratory-based bioassay was performed to assess the acute toxicity of the extracts against adult foraging workers of Apis mellifera. 3 mL aliquots of P. jaceoides extract were applied at 1.0% a.i. w/v via a Potter Spray Tower, using the methodology previously described for the preparation and application of this plant extract to test insects.
Bifenthrin (CAS No 82657-04-3) 97.0% technical (Batch 50118) was sourced from Dr. Ehrenstorfer GmbH D-86190 Augsburg, Germany. A 0.05% w/v a.i. concentration was prepared by dissolving 0.013 g bifenthrin in 1 mL acetone, sonicating for 5 min and then diluted in a 25 mL volumetric flask with 200 ppm Triton X-100 in distilled water. It was applied using a 3 mL aliquot of the 0.05% a.i via a Potter Spray Tower; this concentration was based on recommended label rate in cotton. The control comprised 5 mL acetone and water-Triton X-100 mixture only; two controls were conducted.
Apis mellifera foraging workers for bioassay were collected from a strong, healthy hive at Western Sydney University apiary, at Richmond NSW, Australia, by blocking the hive entrance for 1 min and collecting foragers with a sweep net.
They were immediately transferred to a mesh cage (25×33×33 cm) and maintained in the laboratory at 24° C., where they were fed ad libidum sugar:water 1:1 w/v from cotton wool placed on the mesh at the top of the cage until bioassay, which was undertaken within 1 h of bee collection. Bees for bioassay were randomly collected from the cage using a 120 mL plastic specimen tube, and anaesthetised with medical grade CO2 for 30 s, then ten bees were placed on a 90 mm diameter Petri dish lined with filter paper. The dish with the bees was placed on the Potter Spray Tower stage, and the respective treatment applied, commencing with the control and finishing with bifenthrin treatment.
Immediately after treatment, the treated bees were gently transferred to 250 mL glass beakers, fine nylon mesh was fitted to the top with a rubber band, and the bees fed were sugar:water as above and maintained at 26° C. in very low light. Bee activity was regularly observed and recorded, at 10 min intervals until 420 min (viz. 7 HAT), then less frequently until 48 HAT. By this time, there was bee mortality in both controls, so the investigation was terminated. Data recorded were signs of intoxication, knockdown (K) and mortality (D).

[2] = test system: Aphis gossypii adults and nymphs; assay: Field trial on cotton crop; type: in vivo; details: extract at 1.0%, clothianidin at 125 mL/ha
Method: A trial was conducted on an irrigated commercial Bollgard II cotton crops (Sicot 74 variety) at the Australian Cotton Research Institute (ACM) in Narrabri NSW, Australia. The cotton crop used for the study comprised mature plants close to cut-out and were contaminated with Aphis gossypii from infested leaves collected from a nearby commercial cotton field at Yarral, Narrabri NSW, Australia.
[…] Each replicated plot measured 2 m (2 rows) wide and 1 m long with 2 m (rows) buffer between replicated plots. Three plants in each treatment replicate with terminals infested with aphids were randomly selected and terminals tagged for pre- and post-treatment assessments.
The control was sprayed with 100 ppm Triton-X 100 in water only.
Foliar application of each treatment was performed, applying the control first, then the plant extract, and finally the industry standard. Each treatment was applied to run-off using a small hand-held pressure sprayer fitted with flat fan nozzles delivering a droplet size of 200 μm (equivalent to field application of 100 L/ha). The decision to apply the treatment was made based on the IPM Guidelines and CottonLogic recommended economic threshold of 50% of plant terminals infested.
The number of A. gossypii and beneficial species (mainly predatory insects) were assessed by visually counting A. gossypii adults and nymphs and beneficials on the upper and undersides of leaves from the 3-4 nodes below the tagged plant terminals. Pre-treatment counts were made 24 h before treatment and post treatment counts on 1, 2, 5, 6, 7, 8, 9, 12 and 14 days after treatment (DAT).
The data for both A. gossypii adults and nymphs as well as predatory insects were each initially expressed as numbers per terminal. Data were calculated as percentage reduction of population compared to the pre-treatment count.
Means of data on population reduction were compared using one-way ANOVA, after confirming normality, using SPSS v21. Significance was normally set at 5% (α=0.05), and when there was significance, means were separated using Duncan's Multiple range test.

Cc1c(COC(=O)[C@@H]2[C@H](/C=C(\Cl)C(F)(F)F)C2(C)C)cccc1-c1ccccc1 (racemic) [Bifenthrin]
knockdown commenced ([1]; 0.05% w/v a.i.): 10 MAT
mortality commenced ([1]; 0.05% w/v a.i.): 90 MAT
time of 50% bee knockdown ([1]; 0.05% w/v a.i.): 45-50 MAT
time of 50% mortality ([1]; 0.05% w/v a.i.): 240 MAT
Knockdown (K), no. of bees ([1]; 10 min): 1K
Knockdown (K), no. of bees ([1]; 20 min): 1K
Knockdown (K), no. of bees ([1]; 30 min): 2K
Knockdown (K), no. of bees ([1]; 40 min): 3K
Knockdown (K), no. of bees ([1]; 45 min): 4K
Knockdown (K), no. of bees ([1]; 50 min): 6K
Knockdown (K), no. of bees ([1]; 60 min): 6K
Knockdown (K), no. of bees ([1]; 70 min): 6K
Knockdown (K), no. of bees ([1]; 80 min): 6K
Knockdown (K), no. of bees ([1]; 90 min): 5
Mortality (D), no. of bees ([1]; 90 min): 1
Knockdown (K), no. of bees ([1]; 100 min): 3K, 3D
Mortality (D), no. of bees ([1]; 100 min): 3K, 3D
Knockdown (K), no. of bees ([1]; 110 min): 4K,
Knockdown (K), no. of bees ([1]; 120 min): 4K,
Knockdown (K), no. of bees ([1]; 130 min): 4K,
Knockdown (K), no. of bees ([1]; 140 min): 3
Mortality (D), no. of bees ([1]; 140 min): 4
Knockdown (K), no. of bees ([1]; 150 min): 3
Mortality (D), no. of bees ([1]; 150 min): 4
Knockdown (K), no. of bees ([1]; 160 min): 4K, 4D
Mortality (D), no. of bees ([1]; 160 min): 4K, 4D
Knockdown (K), no. of bees ([1]; 170 min): 4K, 4D
Mortality (D), no. of bees ([1]; 170 min): 4K, 4D
Knockdown (K), no. of bees ([1]; 180 min): 4K, 4D
Mortality (D), no. of bees ([1]; 180 min): 4K, 4D
Knockdown (K), no. of bees ([1]; 190 min): 4K, 4D
Mortality (D), no. of bees ([1]; 190 min): 4K, 4D
Knockdown (K), no. of bees ([1]; 200 min): 4K, 4D
Mortality (D), no. of bees ([1]; 200 min): 4K, 4D
Knockdown (K), no. of bees ([1]; 210 min): 4K, 4D
Mortality (D), no. of bees ([1]; 210 min): 4K, 4D
Knockdown (K), no. of bees ([1]; 220 min): 5
Mortality (D), no. of bees ([1]; 220 min): 4
Knockdown (K), no. of bees ([1]; 230 min): 5
Mortality (D), no. of bees ([1]; 230 min): 4
Knockdown (K), no. of bees ([1]; 240 min): 4
Mortality (D), no. of bees ([1]; 240 min): 5
Knockdown (K), no. of bees ([1]; 250 min): 3
Mortality (D), no. of bees ([1]; 250 min): 6
Knockdown (K), no. of bees ([1]; 260 min): 3
Mortality (D), no. of bees ([1]; 260 min): 6
Knockdown (K), no. of bees ([1]; 270 min): 3
Mortality (D), no. of bees ([1]; 270 min): 6
Knockdown (K), no. of bees ([1]; 280 min): 3
Mortality (D), no. of bees ([1]; 280 min): 6
Knockdown (K), no. of bees ([1]; 290 min): 3
Mortality (D), no. of bees ([1]; 290 min): 6
Knockdown (K), no. of bees ([1]; 300 min): 3
Mortality (D), no. of bees ([1]; 300 min): 6
Knockdown (K), no. of bees ([1]; 310 min): 3
Mortality (D), no. of bees ([1]; 310 min): 6
Knockdown (K), no. of bees ([1]; 320 min): 3
Mortality (D), no. of bees ([1]; 320 min): 6
Knockdown (K), no. of bees ([1]; 330 min): 1
Mortality (D), no. of bees ([1]; 330 min): 8
Knockdown (K), no. of bees ([1]; 340 min): 1
Mortality (D), no. of bees ([1]; 340 min): 8
Knockdown (K), no. of bees ([1]; 350 min): 1
Mortality (D), no. of bees ([1]; 350 min): 8
Knockdown (K), no. of bees ([1]; 360 min): 1
Mortality (D), no. of bees ([1]; 360 min): 8
Knockdown (K), no. of bees ([1]; 370 min): 1
Mortality (D), no. of bees ([1]; 370 min): 8
Knockdown (K), no. of bees ([1]; 380 min): 1
Mortality (D), no. of bees ([1]; 380 min): 8
Knockdown (K), no. of bees ([1]; 390 min): 0
Mortality (D), no. of bees ([1]; 390 min): 9
Knockdown (K), no. of bees ([1]; 400 min): 0
Mortality (D), no. of bees ([1]; 400 min): 9
Knockdown (K), no. of bees ([1]; 410 min): 0
Mortality (D), no. of bees ([1]; 410 min): 9
Knockdown (K), no. of bees ([1]; 420 min): 0
Mortality (D), no. of bees ([1]; 420 min): 9
Knockdown (K), no. of bees ([1]; 450 min): 0
Mortality (D), no. of bees ([1]; 450 min): 9
Mortality (D), no. of bees ([1]; 480 min): 10D
mortality ([1]; by 480 MAT, 0.05% w/v a.i.): 100%

CN/C(=N\[N+](=O)[O-])NCc1cnc(Cl)s1 [Clothianidin]
% Reduction from pre-treatment count, Mean of plots, 1 DAT ([2]; mean of plots 1-4): 54.65%
% Reduction from pre-treatment count, Mean of plots, 2 DAT ([2]; mean of plots 1-4): 77.18%
% Reduction from pre-treatment count, Mean of plots, 5 DAT ([2]; mean of plots 1-4): 85.08a, b %
% Reduction from pre-treatment count, Mean of plots, 6 DAT ([2]; mean of plots 1-4): 84.83%
% Reduction from pre-treatment count, Mean of plots, 7 DAT ([2]; mean of plots 1-4): 77.88%
% Reduction from pre-treatment count, Mean of plots, 14 DAT ([2]; mean of plots 1-4): 82.08%
% Reduction from pre-treatment count (mean of 3 plants), 2 DAT ([2]; per plot, single spray): 55.1% and 92.9% and 64.4% and 96.3%
% Reduction from pre-treatment count (mean of 3 plants), 5 DAT ([2]; per plot, single spray): 75.0% and 78.6% and 97.8% and 88.9%
% Reduction from pre-treatment count (mean of 3 plants), 6 DAT ([2]; per plot, single spray): 84.6% and 64.3% and 97.8% and 92.6%
% Reduction from pre-treatment count (mean of 3 plants), 14 DAT ([2]; per plot, single spray): 97.8% and 78.6% and 77.8% and 74.1%
